Test results taken from patent US20250179106A1, “Metal Bis(Imino) Aryl Compounds and Methods Thereof” (EXXONMOBIL CHEMICAL PATENTS INC., priority 2022, published 2025).

Assay: Solubility of catalysts in alkane solvent
Format: physicochemical
Conditions: ambient temperature (20-25° C.)
Experimental: General considerations: Solubility studies for all catalysts were performed using material as synthesized, unless otherwise noted. Solvents used were sparged with nitrogen (30-60 minutes) and dried over 3 Å mole sieves. Unless stated otherwise, all measurements were performed at ambient temperature (20-25° C.).
A measured mass of solvent was added to a known amount of catalyst. After stirring for at least 30 minutes or more, the resulting mixture was filtered. The filtrate was concentrated is to dryness, and the remaining catalyst was weighed to provide the mass of dissolved catalyst. Solubility was calculated using the formula below.
Alternatively, for mixtures prepared at a low concentration (<0.25 wt %) which remained heterogeneous (visible solids or murky), the value may be reported as being “less than” the calculated value.
Formula used to calculate solubility is listed below.

Solubility (wt %) (solvent isohexane) | Solubility (wt %) (solvent pentane) | SMILES
4.2 wt % |  | CCCC[Si](CCCC)(CCCC)CC(=Nc1c(C)cccc1C)c1cccc(C(C[Si](CCCC)(CCCC)CCCC)=Nc2c(C)cccc2C)n1.[Cl][Fe][Cl] [Catalyst 3]
 | 2.6 wt % | CCCC[Si](CCCC)(CCCC)CC(=Nc1c(C)cc(Cl)cc1C)c1cccc(C(C[Si](CCCC)(CCCC)CCCC)=Nc2c(C)cc(Cl)cc2C)n1.[Cl][Fe][Cl] [Catalyst 7]
 | 1.7 wt % | CCCC[Si](CCCC)(CCCC)CC(=Nc1c(C)ccc(Cl)c1C)c1cccc(C(C[Si](CCCC)(CCCC)CCCC)=Nc2c(C)ccc(Cl)c2C)n1.[Cl][Fe][Cl] [Catalyst 8]
 | 0.15 wt % | CCCC[Si](CCCC)(CCCC)CC(=Nc1c(C)cc(C)cc1Cl)c1cccc(C(C[Si](CCCC)(CCCC)CCCC)=Nc2c(C)cc(C)cc2Cl)n1.[Cl][Fe][Cl] [Catalyst 9]
